Data published in ChEMBL document CHEMBL5608179, “Triptonide induces apoptosis and inhibits the proliferation of ovarian cancer cells by activating the p38/p53 pathway and autophagy” (Bioorg Med Chem, 2024).
Active and inactive are the calls of the source. No cut-off for these calls is given here.

Experiments:
A2780 [1] = assay: Induction of apoptosis in human A2780 cells assessed as necrotic cells at 4 nM measured after 24 hrs by Annexin V-FITC/PI flow cytometry (reference value: 0.39%); assay type: functional
A2780 [2] = assay: Induction of apoptosis in human A2780 cells assessed as late apoptotic cells at 8 nM measured after 24 to 72 hrs by Annexin V-FITC/PI flow cytometry (reference value: 2.54%); assay type: functional; conditions: time 24-72 hrs
A2780 [3] = assay: Induction of cell cycle arrest in human A2780 cells assessed as accumulation of cells at G1 phase at 2 nM measured after 24 hrs by PI staining based ell Cycle Analysis Kit (KeyGEN) (reference value: 53.9%); assay type: functional
A2780 [4] = assay: Induction of cell cycle arrest in human A2780 cells assessed as accumulation of cells at G1 phase at 1 nM measured after 24 hrs by PI staining based ell Cycle Analysis Kit (KeyGEN) (reference value: 53.9%); assay type: functional
A2780 [5] = assay: Induction of apoptosis in human A2780 cells assessed as necrotic cells in presence of SB203580 at 8 nM measured after 24 to 72 hrs by Annexin V-FITC/PI flow cytometry (reference value: 0.39%); assay type: functional; conditions: time 24-72 hrs
[6] = target: Cellular tumor antigen p53 (Homo sapiens) (UniProt P04637); assay: Activation of p53 in human A2780 cells assessed as increase phosphorylation of p38 at 5 to 20 nM measured after 24 hrs by Western blot analysis; assay type: cell-based; conditions: filed as activator, dose 5-20 nM
Cellular tumor antigen p53 (Homo sapiens), sequence (P04637 whole entry, looked up): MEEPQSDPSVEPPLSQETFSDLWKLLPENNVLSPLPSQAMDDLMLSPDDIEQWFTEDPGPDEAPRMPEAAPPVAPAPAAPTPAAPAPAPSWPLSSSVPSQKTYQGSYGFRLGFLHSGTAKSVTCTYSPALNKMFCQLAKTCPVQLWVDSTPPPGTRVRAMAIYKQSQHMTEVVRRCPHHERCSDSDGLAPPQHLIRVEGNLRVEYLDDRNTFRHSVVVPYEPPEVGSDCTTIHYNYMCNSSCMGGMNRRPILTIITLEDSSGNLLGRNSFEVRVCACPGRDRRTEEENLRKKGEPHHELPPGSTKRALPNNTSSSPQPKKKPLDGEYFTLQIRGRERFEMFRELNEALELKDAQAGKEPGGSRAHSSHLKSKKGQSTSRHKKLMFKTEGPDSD

A2780 [7] = assay: Induction of cell cycle arrest in human A2780 cells assessed as accumulation of cells at S phase at 2 nM measured after 24 hrs by PI staining based ell Cycle Analysis Kit (KeyGEN) (reference value: 10%); assay type: functional
A2780 [8] = assay: Induction of apoptosis in human A2780 cells assessed as necrotic cells in presence of p53 SiRNA 1 at 4 nM measured after 24 hrs by Annexin V-FITC/PI flow cytometry (reference value: 0.39%); assay type: functional
A2780 [9] = assay: Induction of apoptosis in human A2780 cells assessed as viable cells at 8 nM measured after 24 to 72 hrs by Annexin V-FITC/PI flow cytometry (reference value: 94.2%); assay type: functional; conditions: time 24-72 hrs, read-out: Activity
A2780 [10] = assay: Induction of cell cycle arrest at S phase in human A2780 cells assessed as increase in cyclin E1 proteins measured after 24 hrs by Western blot analysis; assay type: functional, cell-based; conditions: dose 5-20 nM
A2780 [11] = assay: Induction of cell cycle arrest at S phase in human A2780 cells assessed as increase in cyclin B1 proteins in presence of SB203580 measured at 10 nM after 24 hrs by Western blot analysis; assay type: functional, cell-based
A2780 [12] = assay: Cytotoxicity against human A2780 cells assessed as cell viability in presence of p53 SiRNA 1 measured after 48 hrs by MTT assay; assay type: functional, cell-based
SK-OV-3 = assay: Cytotoxicity against human SK-OV-3 cells assessed as cell viability measured after 48 hrs by MTT assay; assay type: functional, cell-based; conditions: SK-OV-3, 48 h
A2780 [13] = assay: Antiproliferative activity against human A2780 cells assessed as number of fluorescent dots in presence of p53 SiRNA 2 at 4 nM measured after 24 hrs by KitkFluor555 Click-iT EdU Kit staining assay; assay type: functional, cell-based
A2780 [14] = assay: Induction of LC3II expression in human A2780 cells in presence of autophagy inhibitor bafilomycin A1 at 5 to 20 nM measured after 24 hrs by Western blot analysis; assay type: functional, cell-based; conditions: dose 5-20 nM
A2780 [15] = assay: Induction of cell cycle arrest in human A2780 cells assessed as accumulation of cells at G2 phase in presence of SB203580 at 4 nM measured after 24 hrs by PI staining based Cell Cycle Analysis Kit (KeyGEN) (reference value: 24.5%); assay type: functional
A2780 [16] = assay: Induction of apoptosis in human A2780 cells assessed as early apoptotic cells at 4 nM measured after 24 hrs by Annexin V-FITC/PI flow cytometry (reference value: 2.82%); assay type: functional
A2780 [17] = assay: Cytotoxicity against human A2780 cells assessed as cell viability in presence of p53 SiRNA 2 measured after 48 hrs by MTT assay; assay type: functional, cell-based
A2780 [18] = assay: Induction of apoptosis in human A2780 cells assessed as late apoptotic cells at 4 nM measured after 24 hrs by Annexin V-FITC/PI flow cytometry (reference value: 2.54%); assay type: functional
A2780 [19] = assay: Induction of apoptosis in human A2780 cells assessed as viable cells at 4 nM measured after 24 hrs by Annexin V-FITC/PI flow cytometry (reference value: 94.2%); assay type: functional; conditions: read-out: Activity
A2780 [20] = assay: Cytotoxicity against human A2780 cells assessed as cell viability measured after 48 hrs by MTT assay; assay type: functional, cell-based; conditions: A2780, 48 h
A2780 [21] = assay: Induction of apoptosis in human A2780 cells assessed as necrotic cells in presence of p53 SiRNA 2 at 4 nM measured after 24 hrs by Annexin V-FITC/PI flow cytometry (reference value: 0.39%); assay type: functional
A2780 [22] = assay: Induction of apoptosis in human A2780 cells assessed as late apoptotic cells in presence of p53 SiRNA 2 at 4 nM measured after 24 hrs by Annexin V-FITC/PI flow cytometry (reference value: 2.54%); assay type: functional
A2780 [23] = assay: Induction of cleaved PARP level in human A2780 cells at 5 to 20 nM measured after 24 hrs by Western blot analysis; assay type: functional, cell-based; conditions: dose 5-20 nM
A2780 [24] = assay: Induction of cell cycle arrest in human A2780 cells assessed as accumulation of cells at S phase at 1 nM measured after 24 hrs by PI staining based ell Cycle Analysis Kit (KeyGEN) (reference value: 10%); assay type: functional
A2780 [25] = assay: Induction of apoptosis in human A2780 cells assessed as increase in cleaved PARP level measured at 5 to 20 nM by Western blot analysis; assay type: functional, cell-based; conditions: dose 5-20 nM, time 12-48 hrs, TDE = time-dependent effect
[26] = Toxicity in BALB/c-nu mouse subcutaneously inoculated with human A2780 cells assessed as morphological changes of spleen at 3 to 5 mg/kg, ip administered every day for 20 days by HE staining analysis; assay type: organism-based; conditions: in vivo, sc, 480 h, dose 3-5 mg/kg, time 20 day
A2780 [27] = assay: Induction of apoptosis in human A2780 cells assessed as necrotic cells in presence of bafilomycin A1 at 800 nM measured after 24 hrs by Annexin V-FITC/PI flow cytometry (reference value: 0.18%); assay type: functional
A2780 [28] = assay: Induction of apoptosis in human A2780 cells assessed as early apoptotic cells in presence of p53 SiRNA 1 at 4 nM measured after 24 hrs by Annexin V-FITC/PI flow cytometry (reference value: 2.82%); assay type: functional
A2780 [29] = assay: In vivo antitumor activity against human A2780 cells subcutaneously inoculated in BALB/c-nu mouse assessed as reduction in tumor weight at 3 to 5 mg/kg, ip administered every day for 20 days; assay type: functional, organism-based; conditions: dose 3-5 mg/kg, time 20.0 day
A2780 [30] = assay: Cytotoxicity against human A2780 cells assessed as cell viability in presence of bafilomycin A1 upto 60 nM measured after 48 hrs by MTT assay; assay type: functional, cell-based
A2780 [31] = assay: Induction of cell cycle arrest at S phase in human A2780 cells assessed as increase in CDK2 proteins measured after 24 hrs by Western blot analysis; assay type: functional, cell-based; conditions: dose 5-20 nM

Compound `CC(C)[C@]12O[C@H]1[C@@H]1O[C@]13[C@]1(O[C@H]1C[C@H]1C4=C(CC[C@@]13C)C(=O)OC4)[C@@H]2O` [TRIPTOLIDE] has an Activity (A2780 [1]) of 9.88%, an Activity (A2780 [2]) of 20% and an Activity (A2780 [3]) of 62.6%. The Activity (A2780 [4]) was 67.3%, the Activity (A2780 [5]) was 5.87% and the Activity [6] was “Active”. For the same compound, the Activity (A2780 [7]) was 19.9%, the Activity (A2780 [8]) was 8.18% and the viability at 0.008 µM (A2780 [9]) was 55.8%. For the same compound, the Activity (A2780 [10]) was “Dose-Dependent Effect”, the Activity (A2780 [11]) was “inactive” and the Activity (A2780 [12]) was “inactive”. For the same compound, the IC50 (SK-OV-3) was 803 nM, the Activity (A2780 [13]) was “inactive” and the Activity (A2780 [14]) was “inactive”. For the same compound, the Activity (A2780 [15]) was 31.1%, the Activity (A2780 [16]) was 29.5% and the Activity (A2780 [17]) was “inactive”. For the same compound, the Activity (A2780 [18]) was 27.5%, the viability at 0.004 µM (A2780 [19]) was 33.1% and the IC50 (A2780 [20]) was 1830 nM. The Activity (A2780 [21]) was 6.47%, the Activity (A2780 [22]) was 14.4% and the Activity (A2780 [23]) was “Active”. The Activity (A2780 [24]) was 14.4%, the Activity (A2780 [25]) was “Tde” and the Activity [26] was “Non-Toxic”. For the same compound, the Activity (A2780 [27]) was 0.75%, the Activity (A2780 [28]) was 11.7% and the Activity (A2780 [29]) was “Active”. For the same compound, the Activity (A2780 [30]) was “inactive” and the Activity (A2780 [31]) was “Dose-Dependent Effect”.
